Drawing on patent US9850247B2 (Almac Discovery Limited, priority 2013, dated 2017), this text covers EC50, microsomal CLint and IC50 for 17 molecules.

The subject of data set [1] is phospho-cdc2 (Tyr15) in HT-29 cells. Put plainly: Effect on Cdc2 phosphorylation at Tyr15, Cell-Based ELISA Base Kit (Method 3). As to conditions: Homo sapiens, HT-29, 8 h, eight hours incubation, normalized to total cdc2, read-out: HT29 pCDC2 method 3. A digest of the protocol: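 HT-29 cells were treated with compounds for 8 h at 37 °C, then fixed in 4% formaldehyde. Phospho-cdc2 (Tyr15) and total cdc2 were read by dual-fluorogenic cell-based ELISA at 600/450 nm. Phospho signal was normalized to total cdc2 and expressed as % of DMSO control, and EC50 came from non-linear regression.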

Data set [2] can be described thus: CLint estimates using human liver microsomes (Method 4). As to conditions: pH 7.4, 1 μM compound, read-out: Mics - CLint (HLM CLint). The class given is in vitro ADME. In a few lines:
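Depletion measured by LC/MS/MS in MRM mode over 2–50 min after starting reactions with 1 mM NADPH. Incubations used 0.5 mg/mL human liver microsomal protein, 1 μM compound, 0.1% DMSO, pH 7.4 phosphate buffer, 37 °C. ln peak area plotted against time; the gradient gave t½ and intrinsic clearance.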

Data set [3] addresses T1, Wee-1 kinase (Homo sapiens, UniProt P30291).
T1 construct: purchased Invitrogen PV3817
Nature of the data set: Measurement of Wee-1 kinase activity (ADP-Glo luminescent kit). The class given is biochemical. A digest of the protocol:
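ADP-Glo luminescence reads ADP made over 1 h at RT, after an aliquot of 30 μM ATP and 2.0 μg/mL poly(Lys,Tyr 4:1) substrate. Before that, the kinase sat 30 min with inhibitor in Tris-HCl/MgCl2 buffer with BSA and DTT. IC50 came from regression of percent inhibition.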
For orientation: ADP-Glo first removes unused ATP, then detects ADP through luciferase.

The term IC50 denotes the concentration that inhibits the measured activity by half.

T1 sequence (P30291 whole entry): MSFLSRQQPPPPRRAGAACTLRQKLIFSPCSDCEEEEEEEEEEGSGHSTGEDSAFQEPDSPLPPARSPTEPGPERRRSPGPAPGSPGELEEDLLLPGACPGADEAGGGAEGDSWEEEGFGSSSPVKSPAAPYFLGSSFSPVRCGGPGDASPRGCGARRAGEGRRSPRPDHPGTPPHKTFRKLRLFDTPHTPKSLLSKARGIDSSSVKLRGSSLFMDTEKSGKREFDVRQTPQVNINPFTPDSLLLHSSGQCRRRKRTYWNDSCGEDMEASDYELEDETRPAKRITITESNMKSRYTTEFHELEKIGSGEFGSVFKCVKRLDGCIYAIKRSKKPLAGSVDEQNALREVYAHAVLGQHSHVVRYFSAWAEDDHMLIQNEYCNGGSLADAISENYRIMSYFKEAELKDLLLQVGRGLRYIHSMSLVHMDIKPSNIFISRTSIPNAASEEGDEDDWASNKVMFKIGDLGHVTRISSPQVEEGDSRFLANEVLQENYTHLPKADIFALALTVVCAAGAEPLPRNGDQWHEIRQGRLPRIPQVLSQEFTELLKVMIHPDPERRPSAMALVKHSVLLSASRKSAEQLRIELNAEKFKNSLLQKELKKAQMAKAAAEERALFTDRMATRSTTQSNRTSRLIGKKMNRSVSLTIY

With `COC[C@H]1CN(c2ccc(Nc3ncc4c(n3)N(C)CN(c3c(Cl)cccc3Cl)C4=O)cc2)CCN1` [Example 60, (R)-3-(2,6-dichlorophenyl)-7-((4-(3-(methoxymethyl)piperazin-1-yl)phenyl)amino)-1-methyl-2,3-dihydropyrimido[4,5-d]pyrimidin-4(1H)-one], the EC50 in data set [1] is 100 to 1000 nM. The microsomal CLint at 1 μM in data set [2] was no more than 15 µL/min/mg. Besides, the IC50 in data set [3] lay within 10 to 100 nM.

Turning to `CN1CN(c2c(Cl)cccc2Cl)C(=O)c2cnc(Nc3ccc4c(c3)CNCC4)nc21` [Example 14, 3-(2,6-Dichlorophenyl)-1-methyl-7-((1,2,3,4-tetrahydroisoquinolin-7-yl)amino)-2,3-dihydropyrimido[4,5-d]pyrimidin-4(1H)-one], in data set [1], the EC50 is 100 to 1000 nM. Also, in data set [2], the microsomal CLint at 1 μM is no more than 15 µL/min/mg. The half-inhibitory concentration (IC50) in data set [3] is no more than 10 nM.

Take `CN1CCc2ccc(Nc3ncc4c(n3)N(C)CN(c3c(Cl)cccc3Cl)C4=O)cc2C1` [Example 22, 3-(2,6-Dichlorophenyl)-1-methyl-7-((2-methyl-1,2,3,4-tetrahydroisoquinolin-7-yl)amino)-2,3-dihydropyrimido[4,5-d]pyrimidin-4(1H)-one]: the EC50 in data set [1] fell in the range of 100 to 1000 nM. The microsomal CLint at 1 μM in data set [2] was 15 to 50 µL/min/mg. Also, the IC50 in data set [3] was no more than 10 nM.

On to `C[C@@H]1CN[C@@H](C)CN1c1ccc(Nc2ncc3c(n2)N(C)CN(c2c(Cl)cccc2Cl)C3=O)cc1` [Example 40, 3-(2,6-dichlorophenyl)-7-((4-((2R,5S)-2,5-dimethylpiperazin-1-yl)phenyl)amino)-1-methyl-2,3-dihydropyrimido[4,5-d]pyrimidin-4(1H)-one], for which, in data set [1], the EC50 lay within 100 to 1000 nM. For the same molecule, the microsomal CLint at 1 μM in data set [2] is no more than 15 µL/min/mg. Besides, in data set [3], the IC50 was no more than 10 nM.

For `Cc1cc(Nc2ncc3c(n2)N(C)CN(c2c(Cl)cccc2Cl)C3=O)ccc1N1CCNCC1` [Example 6, 3-(2,6-Dichlorophenyl)-1-methyl-7-((3-methyl-4-(piperazin-1-yl)phenyl)amino)-2,3-dihydropyrimido[4,5-d]pyrimidin-4(1H)-one], the EC50 in data set [1] was in the range of 100 to 1000 nM. The microsomal CLint at 1 μM in data set [2] was 15 to 50 µL/min/mg. Besides, the IC50 in data set [3] was no more than 10 nM.

`CN1CN(c2c(Cl)cccc2Cl)C(=O)c2cnc(Nc3ccc(N4CCN[C@@H](CO)C4)cc3)nc21` [Example 19, (R)-3-(2,6-Dichlorophenyl)-7-((4-(3-(hydroxymethyl)piperazin-1-yl)phenyl)amino)-1-methyl-2,3-dihydropyrimido[4,5-d]pyrimidin-4(1H)-one]: the EC50 in data set [1] lay within 100 to 1000 nM. For the same molecule, the microsomal CLint at 1 μM in data set [2] is no more than 15 µL/min/mg. Besides, the IC50 in data set [3] was no more than 10 nM.

With `C[C@H]1CN(c2ccc(Nc3ncc4c(n3)N(C)CN(c3c(Cl)cccc3Cl)C4=O)cc2)CCN1` [Example 17, (S)-3-(2,6-Dichlorophenyl)-1-methyl-7-((4-(3-methylpiperazin-1-yl)phenyl)amino)-2,3-dihydropyrimido[4,5-d]pyrimidin-4(1H)-one], the EC50 in data set [1] lay in the range of 100 to 1000 nM. The microsomal CLint at 1 μM in data set [2] is 15 to 50 µL/min/mg. Besides, the IC50 in data set [3] lay within 10 to 100 nM.

Consider `COCc1cc(Nc2ncc3c(n2)N(C)CN(c2c(Cl)cccc2Cl)C3=O)ccc1N1CCN[C@H](C)C1` [Example 59, (R)-3-(2,6-dichlorophenyl)-7-((3-(methoxymethyl)-4-(3-methylpiperazin-1-yl)phenyl)amino)-1-methyl-2,3-dihydropyrimido[4,5-d]pyrimidin-4(1H)-one], for which the EC50 in data set [1] was in the range of 100 to 1000 nM. The microsomal CLint at 1 μM in data set [2] is no more than 15 µL/min/mg. Further, the concentration for half-maximal inhibition (IC50) in data set [3] lay within 10 to 100 nM.

Turning to `C[C@@H]1CN(c2ccc(Nc3ncc4c(n3)N(C)CN(c3c(Cl)cccc3Cl)C4=O)cc2)[C@@H](C)CN1` [Example 80, 3-(2,6-dichlorophenyl)-7-((4-((2S,5R)-2,5-dimethylpiperazin-1-yl)phenyl)amino)-1-methyl-2,3-dihydropyrimido[4,5-d]pyrimidin-4(1H)-one], the EC50 in data set [1] was in the range of 100 to 1000 nM. In data set [2], the microsomal CLint at 1 μM is 15 to 50 µL/min/mg. Moreover, the IC50 in data set [3] is no more than 10 nM.

Regarding `C[C@@H]1CN(c2ccc(Nc3ncc4c(n3)N(C)CN(c3c(F)cccc3Cl)C4=O)cc2)CCN1` [Example 53, (R)-3-(2-chloro-6-fluorophenyl)-1-methyl-7-((4-(3-methylpiperazin-1-yl)phenyl)amino)-2,3-dihydropyrimido[4,5-d]pyrimidin-4(1H)-one], the EC50 in data set [1] fell in the range of 100 to 1000 nM. Besides, the microsomal CLint at 1 μM in data set [2] was no more than 15 µL/min/mg. Further, in data set [3], the concentration for half-maximal inhibition (IC50) lay within 10 to 100 nM.

As for `[2H]C1([2H])N(C)c2nc(Nc3ccc(N4CCNCC4)cc3)ncc2C(=O)N1c1c(Cl)cccc1Cl` [Example 15, 3-(2,6-Dichlorophenyl)-2,2-dideutero-1-methyl-7-((4-(piperazin-1-yl)phenyl)amino)-2,3-dihydropyrimido[4,5-d]pyrimidin-4(1H)-one], the EC50 in data set [1] was in the range of 100 to 1000 nM. Further, the microsomal CLint at 1 μM in data set [2] is no more than 15 µL/min/mg. The concentration for half-maximal inhibition (IC50) in data set [3] was no more than 10 nM.

Regarding `CNCCOc1ccc(Nc2ncc3c(n2)N(C)CN(c2c(Cl)cccc2Cl)C3=O)cc1` [Example 2, 3-(2,6-Dichlorophenyl)-1-methyl-7-((4-(2-(methylamino)ethoxy)phenyl)amino)-2,3-dihydropyrimido[4,5-d]pyrimidin-4(1H)-one], the EC50 in data set [1] lay within 100 to 1000 nM. In data set [2], the microsomal CLint at 1 μM is no more than 15 µL/min/mg. Besides, in data set [3], the half-inhibitory concentration (IC50) was no more than 10 nM.

Turning to `CN1CN(c2c(Cl)cccc2Cl)C(=O)c2cnc(Nc3ccc(N4CCNCC4)c(C#N)c3)nc21` [Example 11, 3-(2,6-Dichlorophenyl)-7-((3-cyano-4-(piperazin-1-yl)phenyl)amino)-1-methyl-2,3-dihydropyrimido[4,5-d]pyrimidin-4(1H)-one], the EC50 in data set [1] lay in the range of 100 to 1000 nM. In addition, in data set [2], the microsomal CLint at 1 μM was no more than 15 µL/min/mg. The half-inhibitory concentration (IC50) in data set [3] is no more than 10 nM.

As to `C[C@@H]1CN(c2ccc(Nc3ncc4c(n3)N(C)CN(c3c(Cl)cccc3Cl)C4=O)cc2F)CCN1` [Example 43, (R)-3-(2,6-dichlorophenyl)-7-((3-fluoro-4-(3-methylpiperazin-1-yl)phenyl)amino)-1-methyl-2,3-dihydropyrimido[4,5-d]pyrimidin-4(1H)-one], the EC50 in data set [1] fell in the range of 100 to 1000 nM. Besides, the microsomal CLint at 1 μM in data set [2] was no more than 15 µL/min/mg. Moreover, the concentration for half-maximal inhibition (IC50) in data set [3] was no more than 10 nM.

For `C[C@@H]1CN(c2ccc(Nc3ncc4c(n3)N(C)CN(c3c(Cl)cccc3Cl)C4=O)cc2)CCN1` [Example 16, (R)-3-(2,6-Dichlorophenyl)-1-methyl-7-((4-(3-methylpiperazin-1-yl)phenyl)amino)-2,3-dihydropyrimido[4,5-d]pyrimidin-4(1H)-one], the EC50 in data set [1] lay within 100 to 1000 nM. Also, in data set [2], the microsomal CLint at 1 μM is no more than 15 µL/min/mg. Also, the IC50 in data set [3] was no more than 10 nM.

As for `CNCc1cc(Nc2ncc3c(n2)N(C)CN(c2c(Cl)cccc2Cl)C3=O)ccc1N1CCOCC1` [Example 5, 3-(2,6-Dichlorophenyl)-1-methyl-7-((3-((methylamino)methyl)-4-morpholinophenyl)amino)-2,3-dihydropyrimido[4,5-d]pyrimidin-4(1H)-one], the EC50 in data set [1] was in the range of 100 to 1000 nM. Moreover, in data set [2], the microsomal CLint at 1 μM was no more than 15 µL/min/mg. Also, the IC50 in data set [3] is no more than 10 nM.

Regarding `CN1CN(c2c(Cl)cccc2Cl)C(=O)c2cnc(Nc3ccc(N4CCN(C(=O)CN)CC4)cc3)nc21` [Example 13, 7-((4-(4-(2-Aminoacetyl)piperazin-1-yl)phenyl)amino)-3-(2,6-dichlorophenyl)-1-methyl-2,3-dihydropyrimido[4,5-d]pyrimidin-4(1H)-one], the EC50 in data set [1] lay within 100 to 1000 nM. Further, the microsomal CLint at 1 μM in data set [2] was no more than 15 µL/min/mg. In data set [3], the IC50 is no more than 10 nM.
